In data set [1] the test system is human small cell lung carcinoma (NYH). Briefly: inhibition of tumour cell proliferation in vitro, NYH. Type of data set: cell-based.
Data set [2] has as its system human breast cancer (MCF-7). Nature of the data set: inhibition of tumour cell proliferation in vitro, MCF-7. In kind it is cell-based. Particulars: MCF7.
The test system of data set [3] is Yoshida sarcoma cells. Nature of the data set: survival time of Yoshida tumour-bearing rats (LEW/Mol inbred female rats, oral). The following applies: untreated 7.5 days. In kind it is in vivo, rat. The protocol:
The prolongation of survival time of tumour-bearing rats was studied in LEW/Mol inbred female rats inoculated with Yoshida sarcoma cells (identical to the cells described above) in a number of 2×10^7 cells. Tumour-bearing rats were dosed orally once daily from day 3 after the transfer of tumour cells and until death or until the body-weights had increased by 10% as a consequence of tumour proliferation. The time for death of 50% of the animals was calculated by linear regression analysis.

Data set [4] deals with Yoshida sarcoma cells. Briefly: inhibition of Yoshida sarcoma cell proliferation in vitro ([^3 H]thymidine incorporation, 24 h). Type of data set: cell-based. Particulars: Rattus norvegicus, read-out: Inhibition of tumour cell proliferation IC50. The procedure:
(§1) The inhibition of tumour cell proliferation was studied using Yoshida sarcoma cells, originally derived from rat hepatic tumours induced by the carcinogen o-aminoazotoluene. The cells were cultured in vitro for 24 hours in the presence of the compound under investigation. DNA synthesis was measured by incorporation of [^3 H]thymidine, and the median inhibitory concentrations (IC50) of the compounds were calculated. The cytotoxicity of the compounds in normal lymphocytes was assessed by the dye exclusion method and expressed as the concentrations resulting in 50% viability (VC50).

Data set [5] is described as follows: cytotoxicity in normal lymphocytes, dye exclusion method. Type of data set: cell-based. The following applies: concentration resulting in 50% viability, read-out: Effect on viability of normal cells VC50. The protocol: as §1
Data set [6] has as its system human small cell lung carcinoma (NYH). Nature of the data set: therapeutic antitumour effect in nude mice carrying a human small cell lung carcinoma (NYH). Type of data set: in vivo, human tumour in nude mice. The procedure: In addition the antitumour effect of the compounds of the present invention was determined in nude mice carrying a human small cell lung carcinoma (NYH).
Nude mice were inoculated subcutaneously with a 0.2 ml NYH cell suspension (5×10^7 cells/ml). Two weeks after inoculum animals were divided in treatment and control groups. All mice were dosed p.o. once daily according to group from day 14 to 28.

SMILES strings stand for the structures. Where only a bound is given, the exact number is not on record here.

For the molecule `N#CN=C(NCCCCCCOc1ccccc1Cl)Nc1ccncc1` [Example No. 54, N-(6-o-Chlorophenoxyhexyl)-N'-cyano-N"-4-pyridylquanidine], the results for the IC50 in data set [1] and in data set [2] were 0.59 nM and 1.4 nM, respectively.

As for `O=P1(N(CCCl)CCCl)NCCCO1` (stereo not drawn) [Cyclophosphamide, reference compound], the “Time to 50% of animals dead of cancer” value in the data set on Yoshida sarcoma cells [3] (0.3 mg/kg p.o. once daily) is reported as 19.1 days.

As for `COc1ccccc1OCCCCCCNC(=NC#N)Nc1ccncc1` [Example No. 53, N-Cyano-N'-(6-o-methoxyphenoxyhexyl)-N"-4-pyridylquanidine], the IC50 in data set [1] is 0.52 nM; in data set [2], 0.74 nM.

Regarding `N#CN=C(NCCCCCOc1ccccc1)Nc1ccncc1` [Example No. 18, N-Cyano-N'-(5-phenoxypentyl)-N"-4-pyridylquanidine], in the data set on Yoshida sarcoma cells [4], the IC50 worked out at 750 nM. Also, the CC50 in data set [5] was more than 100 µM. Also, in the data set on Yoshida sarcoma cells [3] (20 mg/kg p.o. once daily), the “Time to 50% of animals dead of cancer” value is given as 11.0 days.

Consider `N#CN=C(NCCCCCCOc1ccc(Cl)cc1)Nc1ccncc1` [Example No. 43, N-(6-p-Chlorophenoxyhexyl)-N'-cyano-N"-4-pyridylquanidine], for which the IC50 in data set [1] worked out at 1.9 nM; in data set [2], 21 nM. For the same molecule, the “tumour areas (range)” value in data set [6] (25 mg/kg p.o. once daily day 14 to 28, day 11 (before dosing)) is 12-36 mm^2; in data set [6] (25 mg/kg p.o. once daily day 14 to 28, day 14), 23-58 mm^2; in data set [6] (25 mg/kg p.o. once daily day 14 to 28, day 18, p < 0.05 vs untreated or vehicle) it was 12-59 mm^2; in data set [6] (25 mg/kg p.o. once daily day 14 to 28, day 21, p < 0.05 vs untreated or vehicle), 11-18 mm^2; in data set [6] (25 mg/kg p.o. once daily day 14 to 28, day 25, p < 0.05 vs untreated or vehicle), 4-14 mm^2; in data set [6] (25 mg/kg p.o. once daily day 14 to 28, day 28, p < 0.05 vs untreated or vehicle), 0--0 mm^2. Also, the “tumour areas (range)” value in data set [6] (50 mg/kg p.o. once daily day 14 to 28, day 11 (before dosing)) was 17-64 mm^2; in data set [6] (50 mg/kg p.o. once daily day 14 to 28, day 14) it was 16-131 mm^2; in data set [6] (50 mg/kg p.o. once daily day 14 to 28, day 18, p < 0.05 vs untreated or vehicle), 8-109 mm^2; in data set [6] (50 mg/kg p.o. once daily day 14 to 28, day 21, p < 0.05 vs untreated or vehicle), 6-40 mm^2; in data set [6] (50 mg/kg p.o. once daily day 14 to 28, day 25, p < 0.05 vs untreated or vehicle), 3-27 mm^2; in data set [6] (50 mg/kg p.o. once daily day 14 to 28, day 28, p < 0.05 vs untreated or vehicle) it was 0--0 mm^2. In addition, the Number of tumours in data set [6] (25 mg/kg p.o., day 11 (before dosing)) was found to be 6; in data set [6] (25 mg/kg p.o., day 14), 8; in data set [6] (25 mg/kg p.o., day 18) it was 8; in data set [6] (25 mg/kg p.o., day 21), 5; in data set [6] (25 mg/kg p.o., day 25), 3; in data set [6] (25 mg/kg p.o., day 28), 0. Further, the Number of tumours in data set [6] (50 mg/kg p.o., day 11 (before dosing)) worked out at 6; in data set [6] (50 mg/kg p.o., day 14), 10; in data set [6] (50 mg/kg p.o., day 18) it was 10; in data set [6] (50 mg/kg p.o., day 21), 5; in data set [6] (50 mg/kg p.o., day 25), 5; in data set [6] (50 mg/kg p.o., day 28) it was 0.

Consider `N#CN=C(NCCCCOc1ccccc1)Nc1ccncc1` [Example No. 14, N-Cyano-N'-(4-phenoxybutyl)-N"-4-pyridylquanidine], for which the IC50 in the data set on Yoshida sarcoma cells [4] was determined as 170 nM. Besides, in data set [5], the CC50 turned out to be 100 µM. The “Time to 50% of animals dead of cancer” value in the data set on Yoshida sarcoma cells [3] (20 mg/kg p.o. once daily) is listed as 10.8 days.

In the case of `N#CN=C(NCCCOc1ccccc1)Nc1ccncc1` [Example No. 5, N-Cyano-N'-(3-phenoxypropyl)-N"-4-pyridylquanidine], the IC50 with Yoshida sarcoma cells [4] worked out at 3300 nM. The CC50 in data set [5] is more than 100 µM. The “Time to 50% of animals dead of cancer” value in the data set with Yoshida sarcoma cells [3] (10 mg/kg p.o. once daily) is reported as 12.0 days; in the data set with Yoshida sarcoma cells [3] (20 mg/kg p.o. once daily), 15.5 days; with Yoshida sarcoma cells [3] (50 mg/kg p.o. once daily), “a (No rats had died on day 14. Calculation of 50% dead not possible.)”; in the data set on Yoshida sarcoma cells [3] (100 mg/kg p.o. once daily), “a (No rats had died on day 14. Calculation of 50% dead not possible.)”.

As for `Sc1ncnc2nc[nH]c12` [6-Mercaptopurine, reference compound], the “Time to 50% of animals dead of cancer” value with Yoshida sarcoma cells [3] (10 mg/kg p.o. once daily) stood at 12.2 days.

Turning to `N#CNC(=Nc1ccncc1)NCCCCCCCOc1ccccc1` [Example No. 33, N-Cyano-N'-(7-phenoxyheptyl)-N"-4-pyridylguanidine], the IC50 in data set [1] stood at 0.58 nM; in data set [2], 6.2 nM.

On to `N#CNC(=NCCCCCCOc1cc(Cl)c(Cl)cc1Cl)Nc1ccncc1` [Example No. 52, N-Cyano-N'-4-pyridyl-N"-(6-(2,4,5-trichlorophenoxy)hexyl)guanidine], for which the IC50 in data set [1] was 1.4 nM; in data set [2], 4.3 nM.

For the origin of these results see patent US5696140A, “N-cyano-N'-pyridylguanidines as serotonin antagonists” (Leo Pharmaceutical Products Ltd., priority 1992, dated 1997).
